Measurements taken from patent US8138304B2, “Neural regeneration peptides and formulations thereof” (Neuren Pharmaceuticals Limited, priority 2005, dated 2012).
Where no end group is shown, it is not given here.

Assays:
cerebellar microexplants = test: Cerebellar microexplant survival assay (3-NP/glutamate injury); assay type: cell-based, Wistar rat; conditions: 100 fM; administered simultaneously with toxins (0.5 mM 3-NP, 0.5 mM glutamate), severe injury
Protocol: (§1) Laminated cerebellar cortices of the two hemispheres were explanted from a P3, P4, P7 or P8 Wistar rat, cut into small pieces in GBSS with 0.65% D(+)glucose solution, and triturated by a 0.4 mm gauge needle and subsequently pressed through a 125 μm pore size sieve. The obtained microexplants were centrifuged (60×g) 2 times for a medium exchange into serum-free BSA-supplemented START V-medium (Biochrom). Finally, the microexplants were reconstituted in 500 μl STARTV-medium. For culturing, 38 μl of the cell suspension was incubated for 1 hour on a poly-D-lysine-coated cover slip in a 35 mm Petri dish under an atmosphere comprising 5% CO2 in air and 100% humidity at 34° C. Subsequently, the injuring toxins (as described below), NRPs and 1 ml of STARTV-medium were added, and the cultures were evaluated after 2-3 days of culture.
Toxicological and drug administration experiments were designed such that 1/100 parts of toxin and neuroprotective drug were administered simultaneously to the freshly prepared cerebellar microexplants. […]
For statistical analysis of survival, four fields (each field having an area of 0.65 mm^2) of each fixed cerebellar culture with the highest cell densities were chosen, and cells displaying neurite outgrowth were counted (survival assay).

[1] = test system: purified primary placental trophoblasts; test: TNF-alpha-induced cytotoxicity in isolated trophoblasts (survival assay); assay type: cell-based, human; conditions: 24 hrs pre-incubation
Protocol: Human trophoblast cells were isolated from term placentas with prior approval by the Ethics Committee of the University of Auckland and consent of the patients. The maternal decidua was removed, exposing the villous interior of the placenta. Pieces of villous tissue were cut out and washed thoroughly with PBS before digestion using 0.25% trypsin. The digest was then diluted in Locke Ringers Buffer and DNAase I. Digestion of connective tissue surrounding the placental cells was carried out while stirring the mixture with a magnetic stirrer at a temperature of 37° C. The process was repeated 8 times, with the last 6 supernatants being collected in a bottle containing fetal bovine serum (FBS). The digestion step produced a heterogeneous dispersed cell preparation. The pooled supernates was centrifuged for 7 minutes at 1200 rpm. The cell pellet was resuspended in PBS and centrifuged. This was followed by a 10-minute incubation in erythrocyte lysis buffer with an underlayer of FBS in the last 2 minutes, followed by centrifugation for 7 minutes. Cells were resuspended in M199 medium and recentrifuged.
Cells were then purified using a percoll gradient (5, 20, 30, 35, 40, 50 and 60%). The gradients were prepared with the 60% percoll on the bottom, with decreasing concentrations near the top of the gradient. Cells were introduced into the 5% percoll layer. The cells were centrifuged for 20 minutes at 1200G to separate trophoblasts from debris and other cell types, leaving a band of trophoblasts in the 40% percoll band. This band was collected, the cells washed in M199 medium centrifuged and finally counted and plated according to the methods of Keelan et al, 1998.
In this series of experiments, we studied whether NRP-5RG D6A was able to protect purified primary placental trophoblasts against TNF-alpha mediated injury.
In this study, we plated 30,000 freshly isolated trophoblast cells per well in microtiter well plates followed by pre-incubation with NRP-5RG D6A (SEQ ID NO: 1) for 24 hours. […]

JAr cells = test: TNF-alpha-induced cytotoxicity in immortalized trophoblast cell line; assay type: cell-based, human
Protocol: Choriocarcinoma cells (Jeg-3, BeWo and Jar; ATCC) were cultured under similar conditions in DMEM/F-12 cell culture medium in 75 cm2 flasks with filter tops (Raylab). Cells were allowed to adhere and grow in an incubator equilibrated in 95%/5% air/CO2 to approximately 70% confluence, before being split every 2 to 3 days by addition of 2 ml of 1× concentrated trypsin-EDTA. After a centrifugation step for 5 min at 1100 rpm, cells were resuspended in 15 ml of fresh DMEM/F-12 in sterile tissue flasks and placed back in the incubator.
In this study, we plated 50,000 JAr cells per well. JAr cells are an immortalized line of cells derived from a human choriocarcinoma cells. Wells were pre-incubated with NRP-5RG D6A (SEQ ID NO: 1) at the concentrations indicated in FIG. 12, or epidermal growth factor (EGF; 5 ng/ml) for 2 hours. Subsequently, cells were exposed to the cultures for 48 hours to TNF-alpha (5 ng/ml) and interferon-gamma (5 ng/ml) to induce stress.

cerebellar cells = test: Cerebellar microexplant proliferation assay (BrdU); assay type: cell-based, Wistar rat
Protocol: as §1
Toxicological and drug administration experiments were designed such that 1/100 parts of toxin and neuroprotective drug were administered simultaneously to the freshly prepared cerebellar microexplants. Glutamate was prepared as a 50 mM stock solution in MilliQ water while 50 mM 3-nitropropionic acid was pH-adjusted (pH 6.8-7.2) in MilliQ water. The concentrations of the oxidative stress inducing toxin, 3-nitropropionic acid (3-NP), and the excitotoxin, glutamate, in the assay were 0.5 mM each. Lyophilized peptides were reconstituted in PBS or 100 μg/ml human transferrin as a 10 μM stock solution. Subsequently, serial dilutions were made. Cerebellar microexplants were cultivated for 48-72 hours at 34° C., 5% CO2 in air and 100% humidity before they were fixed by increasing amounts of paraformaldehyde (0.4%, 1.2%, 3% and 4%—each treatment 2-3 min).
Using the toxins described above, cerebellar explants were exposed for 24 hours, at the beginning of culturing to dilutions of NRP (survival assay) or NRP and 0.1 μM BrdU (proliferation assay). Subsequently, 80% of the medium was changed without addition of new toxins and NRPs. […]
For statistical analysis of proliferation BrdU-positive nuclei were counted. Statistical significance was measured by Student's t-test.

In the case of “REGRRAAPGRAGG-NH2 (listed as Homo sapiens) [SEQ ID NO: 1, 13-mer NRP analogue]”, the “survival rates, neuroprotection” value (cerebellar microexplants) was 39.1%, the “protection from TNF-alpha mediated injury” value ([1]; 1 pM, TNF-alpha 5 or 50 ng/ml plus interferon gamma, 48 h) was 100% and the “cytoprotection from TNF-alpha mediated injury” value ([1]; 10 pM) was “protective”. The “cytoprotection from TNF-alpha mediated injury” value ([1]; 1 nM) was “not statistically significant”, the “rescue effect at further increased concentration” value (JAr cells; 1 nM) was “reduced rescue effect” and the “concentration at which a significant rescue effect was observed” value (JAr cells; 2 hours pre-incubation, TNF-alpha 5 ng/ml and interferon-gamma 5 ng/ml, 48 hours) was 10 fM. The “proliferation rate compared to the uninjured vehicle” value (cerebellar cells; 1 pM, BrdU) was “increased the proliferation rate in these cultures significantly” and the “proliferation compared against injured cells without NRP” value (cerebellar cells; p<0.01, SEQ ID NO: 1 at 1 pM, SEQ ID NO: 2 at 100 pM) was “highly proliferation-inducing”.
